Data: US20130029942A1, “COMPOUNDS AND THERAPEUTICAL USES THEREOF” (Myrexis, Inc., priority 2003, published 2013)
Where two headings read alike, the source gives them in different places.

Test system: T-47D cells
Test: Caspase cascade activation / induction of apoptosis in T-47D cells (fluorogenic N-(Ac-DEVD)-N'-ethoxycarbonyl-R110 substrate)
Format: cell-based, human
Details: T-47D; for EC50: Homo sapiens, T47D
[1] = 24 hr, read-out: T-47D (24 hr) EC50
[2] = 48 hr, read-out: T-47D (48 hr) EC50

Work on `Cc1nc(N(C)c2ccc(C(=O)O)cc2)c2ccccc2n1` [Example 116, 4-(N-Methyl-N-(2-methylquinazolin-4-yl)amino)benzoic Acid] yielded an EC50 [1] greater than 10000 nM.
`COc1ccc(N(C)c2nc(C)nc3cc(N)ccc23)cc1` [Example 113, (7-Amino-2-methyl-quinazolin-4-yl)-(4-methoxy-phenyl)-methyl-amine] was tested, and the EC50 [1] was 735 nM.
With `COc1ccc(N(C)c2ccnc3ccccc23)cc1` [Example 66, (4-Methoxy-phenyl)-methyl-(quinolin-4-yl)-amine] the EC50 [1] was 18 nM and the EC50 [2] was 22 nM.
`COc1ccc(N(C)c2nc(NO)nc3ccccc23)cc1` [Example 10, N^2-Hydroxyl-N^4-(4-methoxy-phenyl)-N^4-methyl-quinazoline-2,4-diamine] showed an EC50 [2] of 48 nM.
`COc1ccc(N(C)c2nc(CCl)nc3ccccc23)cc1` [Example 73, (2-Chloromethyl-quinazolin-4-yl)-(4-methoxy-phenyl)-methyl-amine] showed an EC50 [1] of 679 nM and an EC50 [2] of 543 nM.
For `C[C@H]1CC[C@H](Nc2nc(Cl)nc3ccccc23)CC1` [Example 131, (2-chloro-quinazolin-4-yl)-(trans-4-methylcyclohexyl)-amine], the EC50 [1] was greater than 10000 nM and the “T-47D (24 hr) Ratio (caspase activity, net RFU compound / control)” value (24 hr) was 1.2.
With `COc1ccccc1Nc1nc(Cl)nc2ccccc12` [Example 33, (2-Chloro-quinazolin-4-yl)-(2-methoxy-phenyl)-amine] the EC50 [2] was greater than 10000 nM.
For `Cc1nc(N(C)c2ccc([N+](=O)[O-])cc2)c2ccccc2n1` [Example 100, (2-Methyl-quinazolin-4-yl)-(4-nitro-phenyl)-methyl-amine], the EC50 [1] was 474 nM.
In the case of `COc1ccc(N(C)c2nc(NC/C=C(\C)CCC=C(C)C)nc3cc(OC)c(OC)cc23)cc1` [Example 24, 6,7-Dimethoxy-N^2-(3,7-dimethyl-octa-2,6-dienyl)-N^4-(4-methoxy-phenyl)-N^4-methyl-quinazoline-2,4-diamine], the EC50 [1] is reported as greater than 10000 nM and the EC50 [2] is reported as 9460 nM.
`Cc1nc(N(C)c2ccc(N)cc2)c2ccccc2n1` [Example 101, (4-Amino-phenyl)-(2-methyl-quinazolin-4-yl)-methyl-amine] was tested, and the EC50 [1] was 175 nM.
`CN(c1ccc(O)cc1)c1nc(Cl)nc2ccccc12` [Example 54, (2-Chloro-quinazolin-4-yl)-(4-hydroxyphenyl)-methylamine] was tested, and the EC50 [2] was 46 nM.
Compound `CN(c1ccc([N+](=O)[O-])cc1)c1nc(Cl)nc2ccccc12` [Example 4, (2-Chloro-quinazolin-4-yl)-(4-nitro-phenyl)-methyl-amine] has an EC50 [1] of 872 nM.
In the case of `COc1ccc(C(=O)NN(C)c2nc(C(F)(F)F)nc3ccccc23)cc1`, the EC50 (48 hr, benzohydrazide table, read-out: T-47D (48 hr) EC50) is reported as 39 nM and the “T-47D (48 hr) Ratio” value (48 hr, benzohydrazide table) is reported as 13.1.
With `CCOc1ccc(Nc2nc(C)nc3ccccc23)cc1` [Example 106, (4-Ethoxy-phenyl)-(2-methyl-quinazolin-4-yl)-amine] the EC50 [1] was greater than 10000 nM.
In the case of `COc1ccc(N(C)c2nc(NCCO)nc3ccccc23)cc1` [Example 11, N^2-(2-Hydroxylethyl)-N^4-(4-methoxy-phenyl)-N^4-methyl-quinazoline-2,4-diamine], the EC50 [1] is reported as 8 nM and the EC50 [2] is reported as 10 nM.
`COc1ccc(N(C)c2nc(N(C)C)nc3ccccc23)cc1` [Example 122, (2-Dimethylamino-quinazolin-4-yl)-(4-methoxy-phenyl)-methyl-amine] gave an EC50 [1] of 16 nM.
In the case of `CCOC(=O)c1nc(N(C)c2ccc(OC)cc2)c2ccccc2n1` [Example 117, Ethyl 4-(N-(4-Methoxy-phenyl)-N-methylamino)quinazoline-2-carboxylate], the EC50 [1] is reported as 134 nM.
With `COc1ccc(N(C)c2nc(C)nc3ccccc23)nn1` [Example 125, (6-Methoxy-pyridazin-3-yl)-(2-methyl-quinazolin-4-yl)-methyl-amine] the EC50 [1] was 385 nM.
For `COc1ccc(N(C)c2nc(C)nc3ccc([N+](=O)[O-])cc23)cc1` [Example 109, (4-Methoxy-phenyl)-(2-methyl-6-nitro-quinazolin-4-yl)-methyl-amine], the EC50 [1] was 274 nM.
Work on `COc1ccc(N(C)c2nc(C)nc3cccc(OC)c23)cc1` [Example 91, (5-Methoxy-2-methyl-quinazolin-4-yl)-(4-methoxy-phenyl)-methyl-amine] yielded an EC50 [1] of 4 nM.
